Measurements: US20050049276A1, “Imidazopyridines and triazolopyridines” (WARNER-LAMBERT COMPANY, LLC, priority 2003, published 2005)
Structures can show the parent of a compound that is named as a salt. Where two headings read alike, the source gives them in different places.

Tests used:
[1] = test system: MEK (phosphorylation of MAP kinase (ERK) in murine colon 26 (C26) carcinoma cells); assay: Cellular inhibition of ERK phosphorylation, pERK ELISA format (C26ELSA); type: cell-based; conditions: Mus musculus, 1 h, one hour treatment
Source text: Otherwise, percent inhibitions at measured concentrations are reported.

[2] = test system: MEK (phosphorylation of MAP kinase (ERK) in murine colon 26 (C26) carcinoma cells); conditions: read-out: C26CPA1 IC50, one hour treatment
Method: Since ERK1 and ERK2 represent the only known substrates for MEK1 and MEK2, the measurement of inhibition of ERK phosphorylation in cells provides direct read out of cellular MEK inhibition by the compounds of the invention. Detection of phosphorylation of ERK was carried out either by Western blot or ELISA format. […] Supernatants were then subjected to gel electrophoresis and hybridized to a primary antibody recognizing dually phosphorylated ERK1 and ERK2. To evaluate total MAPK levels, blots were subsequently ‘stripped’ and re-probed with a 1:1 mixture of polyclonal antibodies recognizing unphosphorylated ERK1 and ERK2. For pERK ELISA assay, pERK TiterZyme Enzyme immunometric Assay kits were acquired from Assay Designs, Inc (Ann Arbor, Mich.). Briefly, cells were harvested in lysis solution containing 50 mM β-glycerophosphate, 10 mM HEPES, pH7.4, 70 mM NaCl, 2 mM EDTA and 1% SDS and protein lysates were diluted 1:15 with supplied Assay buffer prior to the execution of the assay. The subsequent steps were carried out essentially as recommended by the manufacturer.

| melting point | Structure (SMILES) | further results |
| --- | --- | --- |
| 132 to 134 °C | CCOC(=O)c1cn2ccnc2cc1Nc1ccc(I)cc1F [Example 1, 7-(2-Fluoro-4-iodo-phenylamino)-imidazo[1,2-a]pyridine-6-carboxylic acid ethyl ester] | – |
| – | NC(=O)c1cn2ccnc2cc1Nc1ccc(I)cc1F [Example 3, 7-(2-Fluoro-4-iodo-phenylamino)-imidazo[1.2-a]pyridine-6-carboxylic acid amide] | IC50 [1]: 1.9 nM |
| – | O=C(NCCO)C1=CN2CCN=C2C=C1Nc1ccc(I)cc1F [Example 4, 7-(2-Fluoro-4-iodo-phenylamino)-2,3-dihydro-imidazo[1.2-a]pyridine-6-carboxylic acid (2-hydroxy-ethyl)-amide; hydroiodide salt] | IC50 [2]: 177 nM |
| 201 to 204 °C | CCOC(=O)c1cn2c(C)nnc2cc1Nc1ccc(I)cc1F [Example 5, 7-(2-Fluoro-4-iodo-phenylamino)-3-methyl-[1,2,4]triazolo[4.3-a]pyridine-6-carboxylic acid ethyl ester] | – |
| 300 to 310 °C (dec.) | Cc1nnc2cc(Nc3ccc(I)cc3F)c(C(N)=O)cn12 [Example 6, 7-(2-Fluoro-4-iodo-phenylamino)-3-methyl-[1,2,4]triazolo[4,3-a]pyridine-6-carboxylic acid amide] | – |
